Assay [1] relates to Wnt activity (Sp5-Luc reporter, SW480 colon carcinoma cells). The assay is described as follows: Screening assay for Wnt activity: Sp5-Luc reporter gene assay in SW480 cells. The assay is classed as cell-based. To be noted: Homo sapiens, 42 h incubation, luminescence. From the text:
The screening assay for Wnt activity is described as follows. Reporter cell lines can be generated by stably transducing cancer cell lines (e.g., colon cancer) or primary cells (e.g., IEC-6 intestinal cells) with a lentiviral construct that includes a Wnt-responsive promoter driving expression of the firefly luciferase gene.
SW480 colon carcinoma cells were transduced with a lentiviral vector expressing luciferase with a human Sp5 promoter consisting of a sequence of eight TCF/LEF binding sites. SW480 cells stably expressing the Sp5-Luc reporter gene and a hygromycin resistance gene were selected by treatment with 150 μg/ml of hygromycin for 7 days. These stably transduced SW480 cells were expanded in cell culture and used for all further screening activities. For Sp5-Luc reporter gene assays, the cells were plated at 10,000 cells/well in 96-well plates with growth medium containing 10% fetal calf serum and incubated overnight at 37° C. and 5% CO2. Each compound was dissolved in DMSO as a 10 mM stock in standard j-vials and used to prepare compound source plates in dose-response format with 3-fold serial dilutions and a 10 mM top concentration. Compound transfer from serially diluted source plates to assay plates containing the cells was accomplished using a pintool (Multimek 96, Beckman equipped with V&P Scientific FP1S50H pins) based liquid handling protocol. This protocol used a slotted pin to transfer 50 nl of compound from a source plate well to an assay plate well containing 50 μl of cells in growth medium. […] Control wells received 50 nl of DMSO treatment for normalization and calculating IC50 values. The treated cells were incubated at 37° C. and 5% CO2 for an additional forty-two hours. Following incubation, the growth medium was removed and 50 μl of BrightGlo luminescence reagent (Promega) was added to each well of the 96-well assay plates. The plates were placed on an orbital shaker for 5 min and then luminescence was quantified on the Victor3 (Perkin Elmer) plate reader. Readings were normalized to DMSO only treated cells, and normalized activities were utilized for IC50 calculations using the dose-response log (inhibitor) vs. response-variable slope (four parameters) nonlinear regression feature available in GraphPad Prism 5.0 or 6.0.

For assay [2], the system named is primary human fibroblasts derived from IPF patients (LL29 cells). The experiment in a line: Inhibition of fibrosis: TGF-β1-treated primary human fibroblasts from IPF patients (LL29), αSMA staining. Format: cell-based. The note with it: Fibroblast, 96 h, TGF-β1 20 ng/mL, 4 days, % αSMA-positive cells. From the text:
The above synthesized compounds were screened using primary human fibroblasts (derived from IPF patients) treated with TGF-β1 to determine their ability to inhibit the fibrotic process.
Primary human fibroblasts derived from IPF patients (LL29 cells) [^1Xiaoqiu Liu, et. al., “Fibrotic Lung Fibroblasts Show Blunted Inhibition by cAMP Due to Deficient cAMP Response Element-Binding Protein Phosphorylation”, Journal of Pharmacology and Experimental Therapeutics (2005), 315(2), 678-687; ^2Watts, K. L., et. al., “RhoA signaling modulates cyclin D1 expression in human lung fibroblasts; implications for idiopathic pulmonary fibrosis”, Respiratory Research (2006), 7(1), 88] were obtained from American Type Culture Collection (ATCC) and expanded in F12 medium supplemented with 15% Fetal Bovine Serum and Penicillin/Streptomycin.
Each compound was dissolved in DMSO as a 10 mM stock and used to prepare compound source plates. Serial dilution (1:2, 11-point dose-response curves from 10 μM to 1.87 nM) and compound transfer was performed using the ECHO 550 (Labcyte, Sunnyvale, Calif.) into 384-well clear bottom assay plates (Greiner Bio-One) with appropriate DMSO backfill for a final DMSO concentration of 0.1%. LL29 cells were plated at 1,500 cells/well in 80 μl/well F12 medium supplemented with 1% Fetal Bovine Serum. One hour after addition of the cells, TGF-β1 (Peprotech; 20 ng/mL) was added to the plates to induce fibrosis (ref 1 and 2 above). Wells treated with TGF-β1 and containing DMSO were used as controls. Cells were incubated at 37° C. and 5% CO2 for 4 days. Following incubation for 4 days, SYTOX green nucleic acid stain (Life Technologies [Thermo Fisher Scientific]) was added to the wells at a final concentration of 1 uM and incubated at room temperature for 30 min. Cells were then fixed using 4% formaldehyde (Electron Microscopy Sciences), washed 3 times with PBS followed by blocking and permeabilization using 3% Bovine Serum Albumin (BSA; Sigma) and 0.3% Triton X-100 (Sigma) in PBS. Cells were then stained with antibody specific to α-smooth muscle actin (αSMA; Abcam) (ref 1 and 2 above) in 3% Bovine Serum Albumin (BSA; Sigma) and 0.3% Triton X-100 (Sigma) in PBS, and incubated overnight at 4° C. Cells were then washed 3 times with PBS, followed by incubation with Alexa Flor-647 conjugated secondary antibody (Life Technologies [Thermo Fisher Scientific]) and DAPI at room temperature for 1 hour. Cells were then washed 3 times with PBS and plates were sealed for imaging. αSMA staining was imaged by excitation at 630 nm and emission at 665 nm and quantified using the Compartmental Analysis program on the CellInsight CX5 (Thermo Scientific). Dead or apoptotic cells were excluded from analysis based on positive SYTOX green staining. % of total cells positive for αSMA were counted in each well and normalized to the average of 11 wells treated with TGF-β1 on the same plate using Dotmatics' Studies Software. The normalized averages (fold change over untreated) of 3 replicate wells for each compound concentration were used to create dose-responses curves and EC50 values were calculated using non-linear regression curve fit in the Dotmatics' Studies Software. The EC50 values are reported.

The IC50 is the concentration that gives 50% inhibition. The term EC50 denotes the concentration at which the effect is half-maximal. Read a low EC50 as an effect from little substance. The compound `CC(=O)c1ccc(-c2nccc3[nH]c(-c4n[nH]c5ccc(-c6cncc(NC(=O)Cc7ccccc7)c6)cc45)nc23)s1` [Compound 374, N-(5-(3-(4-(5-Acetylthiophen-2-yl)-1H-imidazo[4,5-c]pyridin-2-yl)-1H-indazol-5-yl)pyridin-3-yl)-2-phenylacetamide] had an IC50 in assay [1] of 9 nM. Also, a half-maximal effect in assay [2] (EC50) was put at 9 nM.
For `CCC(=O)Nc1cncc(-c2ccc3[nH]nc(-c4nc5c(N6CCCCC6)nccc5[nH]4)c3c2)c1` [Compound 157, N-(5-(3-(4-(Piperidin-1-yl)-1H-imidazo[4,5-c]pyridin-2-yl)-1H-indazol-5-yl)pyridin-3-yl)propionamide], the IC50 in assay [1] was found to be 183 nM. Besides, in assay [2], the EC50 was 71 nM.
Consider `CN(C)Cc1cncc(-c2ccc3[nH]nc(-c4nc5c(N6CCCCC6)nccc5[nH]4)c3c2)c1` [Compound 169, N,N-Dimethyl-1-(5-(3-(4-(piperidin-1-yl)-1H-imidazo[4,5-c]pyridin-2-yl)-1H-indazol-5-yl)pyridin-3-yl)methanamine], for which the IC50 in assay [1] was 4020 nM. In addition, a half-maximal response in assay [2] (EC50) required 171 nM.
The compound `c1ccc(CNCc2cncc(-c3ccc4[nH]nc(-c5nc6c(-c7ccsc7)nccc6[nH]5)c4c3)c2)cc1` [Compound 257, N-Benzyl-1-(5-(3-(4-(thiophen-3-yl)-1H-imidazo[4,5-c]pyridin-2-yl)-1H-indazol-5-yl)pyridin-3-yl)methanamine] had an IC50 in assay [1] of 7 nM. This compound also gave an EC50 in assay [2] of 9 nM.
The corresponding values for `O=C(Nc1cncc(-c2ccc3[nH]nc(-c4nc5c(-c6ccsc6)nccc5[nH]4)c3c2)c1)C1CC1` [Compound 253, N-(5-(3-(4-(Thiophen-3-yl)-1H-imidazo[4,5-c]pyridin-2-yl)-1H-indazol-5-yl)pyridin-3-yl)cyclopropanecarboxamide] are 126 nM and 544 nM.
The matching figures for `Nc1cncc(-c2ccc3[nH]nc(-c4nc5c(-c6ccccc6F)nccc5[nH]4)c3c2)c1` [Compound 55, 5-(3-(4-(2-Fluorophenyl)-1H-imidazo[4,5-c]pyridin-2-yl)-1H-indazol-5-yl)pyridin-3-amine]: 4.1 nM and 17 nM.
In the case of `CCC(=O)Nc1cncc(-c2ccc3[nH]nc(-c4nc5c(-c6cccc(F)c6)nccc5[nH]4)c3c2)c1` [Compound 1, N-(5-(3-(4-(3-Fluorophenyl)-1H-imidazo[4,5-c]pyridin-2-yl)-1H-indazol-5-yl)pyridin-3-yl)propionamide], in assay [1], half-maximal inhibition (IC50) was put at 1 nM. The compound further yielded an EC50 in assay [2] of 20 nM.
The matching figures for `CS(=O)(=O)NCc1cc(F)cc(-c2nccc3[nH]c(-c4n[nH]c5ccc(-c6cncc(NC(=O)c7ccccc7)c6)cc45)nc23)c1` [Compound 401, N-(5-(3-(4-(3-Fluoro-5-(methylsulfonamidomethyl)phenyl)-1H-imidazo[4,5-c]pyridin-2-yl)-1H-indazol-5-yl)pyridin-3-yl)benzamide]: 32 nM and 9990 nM.
`CN(C)c1cncc(-c2ccc3[nH]nc(-c4nc5c(-c6ccccc6F)nccc5[nH]4)c3c2)c1` [Compound 59, 5-(3-(4-(2-Fluorophenyl)-1H-imidazo[4,5-c]pyridin-2-yl)-1H-indazol-5-yl)-N,N-dimethylpyridin-3-amine] showed an IC50 in assay [1] of 9.4 nM. In assay [2], this compound registered an EC50 of 18 nM.
The corresponding values for `Fc1cccc(-c2nccc3[nH]c(-c4n[nH]c5ccc(-c6cn[nH]c6)cc45)nc23)c1` [Compound 1771, 2-(5-(1H-Pyrazol-4-yl)-1H-indazol-3-yl)-4-(3-fluorophenyl)-1H-imidazo[4,5-c]pyridine] are 4 nM and 9990 nM.
The matching figures for `CCCC(=O)Nc1cncc(-c2ccc3[nH]nc(-c4nc5c(-c6ccsc6)nccc5[nH]4)c3c2)c1` [Compound 251, N-(5-(3-(4-(Thiophen-3-yl)-1H-imidazo[4,5-c]pyridin-2-yl)-1H-indazol-5-yl)pyridin-3-yl)butyramide]: 1 nM and 18 nM.

(Values after patent publication US10081631B2, “2-(1H-indazol-3-yl)-1H-imidazo[4,5-C]pyridine and therapeutic uses thereof” (Samumed, LLC, priority 2014, dated 2018).)
